The subject of series [1] is Ehrlich ascites carcinoma. As to the kind of experiment: Preventive effect against the growth of Ehrlich ascites carcinoma (Method A). It is filed as in vivo, mice (ICR, female). Here is the method:
(A) Preventive effect against the growth of Ehrlich ascites tumor
10^6 tumor cells of Ehrlich ascites carcinoma were inoculated intraperitoneally into a group of five femal mice (ICR mice, body weight: 19-23 g). A test compound was dissolved in a physiological saline solution and administered intraperitoneally to the mice. The administration of the test compound was began 24 hours after the inoculation of the tumor cells and performed once a day for 5 days. The volume of ascites in the treated mice were measured after 7 days of the experiment.

The subject of series [2] is tumor cells of lymphoid leukemia L-1210. To be noted: tumor cells implanted intraperitoneally; U.S. Pat. No. 4086451 and Japanese publications; cited from earlier work.
In a further series the test system is leukemic cells. To be noted: Japanese Patent Publication No. 141815/1976; cited from earlier work.

These results are taken from US4241052A, “Novel nitrosourea compounds and process for preparing the same” (Tanabe Seiyaku Co., Ltd., priority 1978, dated 1980).

For `O=NN(CCCl)C(=O)N[C@@H]1O[C@H](CO)[C@@H](O)[C@H](O)[C@H]1O` [GANU, 1-(2-chloroethyl)-1-nitroso-3-(D-glucopyranosyl)urea, reference compound], the Inhibition ratio in series [1] (0.09 mg/kg/day i.p., 5 days) amounted to 4.2%; in series [1] (0.19 mg/kg/day i.p., 5 days), 79.2%; in series [1] (0.39 mg/kg/day i.p., 5 days), 100%; in series [1] (0.78 mg/kg/day i.p., 5 days), 100%; in series [1] (3.12 mg/kg/day i.p., 5 days), 100%. In series [1] (25 mg/kg/day i.p., 5 days), the “Toxic (number of mice died/number of mice used)” value is given as 5/5. In addition, the “Therapeutic index (MTD/MED)” value in series [1] (MTD/MED) worked out at 32. Further, the minimal effective dose in series [1] (Mus musculus, Ehrlich, ip, 168 h, min dose, 100% inhibition, doses of the table in mg/kg/day, read-out: MED (Minimum Effective Dose)) is 0.39 mg/kg/day. Besides, the “MTD (Maximum Tolerated Dose)” value in series [1] (max dose, 100% inhibition without death, doses of the table in mg/kg/day, 10080 min) worked out at 12.5. In addition, the “life span of mice implanted with L-1210” value in series [2] is on record as “increase the life span”.

As for `O=NN(CCCl)C(=O)NC1O[C@H](CO)[C@@H](O[C@@H]2O[C@H](CO)[C@H](O)[C@H](O)[C@H]2O)[C@H](O)[C@H]1O` (stereo partly drawn) [1-(2-chloroethyl)-1-nitroso-3-(D-lactosyl)urea], the “anti-tumor activity against leukemic cells” value in the series with leukemic cells is “show anti-tumor activity”.

Regarding `O=NN(CCCl)C(=O)NC1O[C@H](CO)[C@@H](O[C@H]2O[C@H](CO)[C@@H](O)[C@H](O)[C@H]2O)[C@H](O)[C@H]1O` (stereo partly drawn) [1-(2-chloroethyl)-1-nitroso-3-(D-maltosyl)urea], the “anti-tumor activity against leukemic cells” value with leukemic cells is “show anti-tumor activity”.
